Measured values: patent publication US20250186391A1, “ORAL COMPLEMENT FACTOR D INHIBITORS” (BioCryst Pharmaceuticals, Inc., priority 2019, published 2025)

Target: Factor D (Homo sapiens (Human), UniProt P00746)
Experiment: Factor D esterolytic assay
Assay type: biochemical
Conditions: Z-Lys-SBzl substrate, 100 mM HEPES, 500 mM NaCl, pH 7.5, 10% DMSO; tested a minimum of three times; read-out: Measured Ki (IC50) Value for Compounds: IC50
Summary of the method: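 Buffer was 100 mM HEPES, 500 mM NaCl, pH 7.5 with 10% DMSO. Compound and Factor D were combined, then Z-Lys-SBzl (1.29 mM) was added either at once or following room-temperature incubation. Rates came from DTNB colour at 405 nm minus 690 nm over 600 s, with percent inhibition giving IC50 over at least three tests.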

Chain of Factor D (P00746 26-253): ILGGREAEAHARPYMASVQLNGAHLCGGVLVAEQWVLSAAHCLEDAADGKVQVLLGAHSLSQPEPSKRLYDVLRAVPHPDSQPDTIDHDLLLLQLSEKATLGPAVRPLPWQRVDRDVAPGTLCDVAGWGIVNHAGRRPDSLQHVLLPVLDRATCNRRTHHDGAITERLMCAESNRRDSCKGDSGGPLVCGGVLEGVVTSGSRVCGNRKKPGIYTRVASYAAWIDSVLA

| IC50 | SMILES |
| --- | --- |
| < 1 µM | NCc1cccc(-c2ccc3nnc(COc4ccccc4CC(=O)O)n3c2)c1 [Compound 212d, 2-(2-((6-(3-(aminomethyl)phenyl)-[1,2,4]triazolo[4,3-a]pyridin-3-yl)methoxy)phenyl)acetic acid] |
| < 1 µM | NCc1cccc(-c2cc(CN3CCC[C@H]3C(F)(F)F)c3occ(COc4ccccc4CC(=O)O)c3c2)c1 [Compound 178f, (S)-2-(2-((5-(3-(aminomethyl)phenyl)-7-((2-(trifluoromethyl)pyrrolidin-1-yl)methyl)benzofuran-3-yl)methoxy)phenyl)acetic acid] |
| < 1 µM | NCc1cc(-c2cc(COc3ccccc3CC(=O)O)cc3cc(COc4ccccc4CC(=O)O)oc23)ccn1 [Compound 27e, 2,2′-((((7-(2-(aminomethyl)pyridin-4-yl)benzofuran-2,5-diyl)bis(methylene))bis(oxy))bis(2,1-phenylene))diacetic acid] |
| < 1 µM | CCc1oc2ccc(-c3cccc(CN)c3)cc2c1COc1ccccc1CC(=O)O [Compound 226c, 2-(2-((5-(3-(aminomethyl)phenyl)-2-ethylbenzofuran-3-yl)methoxy)phenyl)acetic acid] |
| > 10 µM | CC(C)n1nc(COc2ccccc2CC(=O)O)c2cc(-c3cc(CN)cc(C4CCOCC4)c3)ccc21 [Compound 332e, 2-(2-((5-(3-(aminomethyl)-5-(tetrahydro-2H-pyran-4-yl)phenyl)-1-isopropyl-1H-indazol-3-yl)methoxy)phenyl)acetic acid] |
| < 1 µM | NCc1cccc(-c2cc([N+](=O)[O-])c3oc(C(=O)O)c(COc4ccccc4CC(=O)O)c3c2)c1 [Compound 59g, 5-(3-(aminomethyl)phenyl)-3-((2-(carboxymethyl)phenoxy)methyl)-7-nitrobenzofuran-2-carboxylic acid] |
| < 1 µM | NCc1cccc(-c2cc(COc3ccccc3CC(=O)O)cc3cc(COc4ccccc4CC(=O)O)oc23)c1F [Compound 13b, 2,2′-((((7-(3-(aminomethyl)-2-fluorophenyl)benzofuran-2,5-diyl)bis(methylene))bis(oxy))bis(2,1-phenylene))diacetic acid] |
| < 1 µM | NCc1cccc(-c2cc3c(COc4ccccc4CC(=O)O)cccc3o2)c1 [Compound 282f, 2-(2-((2-(3-(aminomethyl)phenyl)benzofuran-4-yl)methoxy)phenyl)acetic acid] |
| 1 to 10 µM | NCc1cccc(-c2cc3c(COc4ccccc4CC(=O)O)ccc(C4CC4)c3o2)c1 [Compound 291g, 2-(2-((2-(3-(aminomethyl)phenyl)-7-cyclopropylbenzofuran-4-yl)methoxy)phenyl)acetic acid] |
| < 1 µM | NCc1cccc(-c2coc3ccc(COc4ccccc4CC(=O)O)cc23)c1 [Compound 38e, 2-(2-((3-(3-(aminomethyl)phenyl)benzofuran-5-yl)methoxy)phenyl)acetic acid] |
| < 1 µM | NCc1cccc(-c2ccc3snc(COc4ccccc4CC(=O)O)c3c2)c1 [Compound 93e, 2-(2-((5-(3-(aminomethyl)phenyl)benzo[d]isothiazol-3-yl)methoxy)phenyl)acetic acid] |
| < 1 µM | NCc1cccc(-c2cc3c(COc4ccccc4CC(=O)O)csc3c3occc23)c1 [Compound 232h, 2-(2-((4-(3-(aminomethyl)phenyl)thieno[3,2-g]benzofuran-6-yl)methoxy)phenyl)acetic acid] |
| < 1 µM | NCc1cccc(-c2ccc3occ(COc4c(N)cccc4CC(=O)O)c3c2)c1 [Compound 90h, 2-(3-amino-2-((5-(3-(aminomethyl)phenyl)benzofuran-3-yl)methoxy)phenyl)acetic acid] |
| < 1 µM | NCc1cccc(-c2cc(NCC3CCCC3)c3occ(COc4ccccc4CC(=O)O)c3c2)c1 [Compound 146d, 2-(2-((5-(3-(aminomethyl)phenyl)-7-((cyclopentylmethyl)amino)benzofuran-3-yl)methoxy)phenyl)acetic acid] |
